Test results published in patent publication US20080003215A1, “Use of pre-dissolved pristinamycin-type and polyether ionophore type antimicrobial agents in the production of ethanol” (priority 2006, published 2008).

Test system: L. plantarum
Assay: Development of resistance test (10 week duration)
Assay type: cell-based
Conditions: 10 week duration of the test
Text: One very effective control program involves the introduction of pristinamycin-type antimicrobial agents, and particularly virginiamycin, to the process. […] Usually, the “waste” byproduct, known as “Dried Distillers Grains with Solubles (DDGS), is sold as animal feed, going 45% to dairy, 35% to beef, 15% to swine, and 5% to poultry industries. This is an important factor in the profitability of an ethanol production process, and the total amount of this byproduct produced per year is on the order of 3.5 million metric tons per year. The presence of residual antimicrobial agents in this material can adversely affect the value of this byproduct, as small residual amounts of antimicrobial agents in feed will promote the development of agent-resistant microorganisms. We have tested DDGS samples from 8 major ethanol producers using virginiamycin to control microorganisms and found no detectable amount of virginiamycin in the DDGS (<1 ppm via the validated Eurofins analysis and <1 ppb via an unvalidated experimental analytical procedure). […] Generally, however, the virginiamycin in mash is destroyed by drying so virginiamycin must be re-added to the feed if so desired. Other effective control agents include polyether ionophore-type antimicrobial agents, which provide many of the benefits obtained with pristinamycin-type antimicrobial agents. […]

For virginiamycin, the “Time until L. plantarum developed resistance” value was “no development of resistance”.
